Earlier results, collected in patent US6676926B2, “Radiopharmaceuticals for diagnosing Alzheimer's disease” (Schering Aktiengesellschaft, priority 2000, dated 2004).

Tests used:
[1] = normal mice
[2] = tested on: synthetic-amyloid; details: in vitro

## O=C(O)c1cc(/N=N/c2ccc(-c3ccc(/N=N/c4ccc(O)c(C(=O)O)c4)cc3)cc2)ccc1O [Chrysamine G]
[1]
  blood-brain barrier passage: crosses the blood-brain barrier
[2]
  binding to synthetic amyloid: binds synthetic-amyloid well
